Laboratory results published in patent US4255421A, “Fortimicin aminoglycosides, process for production thereof, and use thereof” (Kowa Company, Ltd., priority 1978, dated 1981).

Legend:
Type in all cases: cell-based
[1] = test system: Staphylococcus aureus 209P; experiment: antibacterial spectra (Table 1)
[2] = test system: Bacillus subtilis ATCC 6633; experiment: antibacterial spectra (Table 1)
Bacillus cereus = experiment: antibacterial spectra (Table 1)
Bacillus anthracis = test system: Bacillus anthracis
Streptococcus faecalis = experiment: antibacterial spectra (Table 1)
Escherichia coli NIHJ = experiment: antibacterial spectra (Table 1)
Escherichia coli ML1410 = experiment: antibacterial spectra (Table 1)
Proteus vulgaris OX-19 = experiment: antibacterial spectra (Table 1)
[3] = test system: Klebsiella pneumoniae PCI 602; experiment: antibacterial spectra (Table 1)
[4] = test system: Pseudomonas aeruginosa Shibata; experiment: antibacterial spectra (Table 1)
[5] = test system: Pseudomonas aeruginosa A3; experiment: antibacterial spectra (Table 1)
[6] = test system: Pseudomonas aeruginosa No. 12; experiment: antibacterial spectra (Table 1)
[7] = test system: Pseudomonas aeruginosa TI-13; experiment: antibacterial spectra (Table 1)
[8] = test system: Pseudomonas aeruginosa K-11; experiment: antibacterial spectra (Table 1); details: Pseudomonas aeruginosa K-11 (resistant to kanamycin)
[9] = test system: Pseudomonas aeruginosa No. 157; experiment: antibacterial spectra (Table 1)
[10] = test system: Pseudomonas aeruginosa No. 315; experiment: antibacterial spectra (Table 1); details: Pseudomonas aeruginosa No. 315 (resistant to gentamicin, tobramycin and amikacin)
Proteus inconstans = experiment: antibacterial spectra (Table 1)
Serratia marcescens = experiment: antibacterial spectra (Table 1)

4-N-glycyl KA-6606VI was tested, and the antibacterial spectra [1] was 0.39, the antibacterial spectra [2] was 0.20 and the antibacterial spectra (Bacillus cereus) was 0.78. For the same substance, the antibacterial spectra (Bacillus anthracis) was 0.20, the antibacterial spectra (Streptococcus faecalis) was 25 and the antibacterial spectra (Escherichia coli NIHJ) was 1.56. For the same substance, the antibacterial spectra (Escherichia coli ML1410) was 3.13, the antibacterial spectra (Proteus vulgaris OX-19) was 1.56 and the antibacterial spectra [3] was 0.78. The antibacterial spectra [4] was 6.25, the antibacterial spectra [5] was 6.25 and the antibacterial spectra [6] was 0.78. For the same substance, the antibacterial spectra [7] was 3.13, the antibacterial spectra [8] was 6.25 and the antibacterial spectra [9] was 3.13. For the same substance, the antibacterial spectra [10] was 12.5, the antibacterial spectra (Proteus inconstans) was 1.56 and the antibacterial spectra (Serratia marcescens) was 0.78.
